Results from US11566022B2, “3-(5-methoxy-1-oxoisoindolin-2-yl)piperidine-2,6-dione derivatives and uses thereof” (NOVARTIS AG, priority 2019, dated 2023).
Read-outs that look alike come from different tables or passages of the source.

Target: HiBit-WIZ fusion protein (Homo sapiens, UniProt O95785+Q96SW2)
Assay: Quantification of WIZ protein levels in HiBit tag fusion protein assay (WIZ HiBit assay in 293T cells)
Assay type: cell-based
Parameters: Dmax: dose or concentration left out as unconfirmed
Settings: for remaining activity at up to 25 µM: DMSO-normalized, curve-fitted percentage of WIZ-HiBit remaining at 25 uM, read-out: WIZ Amax; for DC50: WIZ HiBit assay in 293T cells, 10-point, 5-fold dose response, highest concentration 25 μM, about 18 hours, read-out: WIZ AC50
[1] = HEK-293T, 100 minus Amax, 293T cells, read-out: % degradation of WIZ (100-Amax)

Chain of HiBit-WIZ fusion protein (O95785 whole entry, the tested form may be a part): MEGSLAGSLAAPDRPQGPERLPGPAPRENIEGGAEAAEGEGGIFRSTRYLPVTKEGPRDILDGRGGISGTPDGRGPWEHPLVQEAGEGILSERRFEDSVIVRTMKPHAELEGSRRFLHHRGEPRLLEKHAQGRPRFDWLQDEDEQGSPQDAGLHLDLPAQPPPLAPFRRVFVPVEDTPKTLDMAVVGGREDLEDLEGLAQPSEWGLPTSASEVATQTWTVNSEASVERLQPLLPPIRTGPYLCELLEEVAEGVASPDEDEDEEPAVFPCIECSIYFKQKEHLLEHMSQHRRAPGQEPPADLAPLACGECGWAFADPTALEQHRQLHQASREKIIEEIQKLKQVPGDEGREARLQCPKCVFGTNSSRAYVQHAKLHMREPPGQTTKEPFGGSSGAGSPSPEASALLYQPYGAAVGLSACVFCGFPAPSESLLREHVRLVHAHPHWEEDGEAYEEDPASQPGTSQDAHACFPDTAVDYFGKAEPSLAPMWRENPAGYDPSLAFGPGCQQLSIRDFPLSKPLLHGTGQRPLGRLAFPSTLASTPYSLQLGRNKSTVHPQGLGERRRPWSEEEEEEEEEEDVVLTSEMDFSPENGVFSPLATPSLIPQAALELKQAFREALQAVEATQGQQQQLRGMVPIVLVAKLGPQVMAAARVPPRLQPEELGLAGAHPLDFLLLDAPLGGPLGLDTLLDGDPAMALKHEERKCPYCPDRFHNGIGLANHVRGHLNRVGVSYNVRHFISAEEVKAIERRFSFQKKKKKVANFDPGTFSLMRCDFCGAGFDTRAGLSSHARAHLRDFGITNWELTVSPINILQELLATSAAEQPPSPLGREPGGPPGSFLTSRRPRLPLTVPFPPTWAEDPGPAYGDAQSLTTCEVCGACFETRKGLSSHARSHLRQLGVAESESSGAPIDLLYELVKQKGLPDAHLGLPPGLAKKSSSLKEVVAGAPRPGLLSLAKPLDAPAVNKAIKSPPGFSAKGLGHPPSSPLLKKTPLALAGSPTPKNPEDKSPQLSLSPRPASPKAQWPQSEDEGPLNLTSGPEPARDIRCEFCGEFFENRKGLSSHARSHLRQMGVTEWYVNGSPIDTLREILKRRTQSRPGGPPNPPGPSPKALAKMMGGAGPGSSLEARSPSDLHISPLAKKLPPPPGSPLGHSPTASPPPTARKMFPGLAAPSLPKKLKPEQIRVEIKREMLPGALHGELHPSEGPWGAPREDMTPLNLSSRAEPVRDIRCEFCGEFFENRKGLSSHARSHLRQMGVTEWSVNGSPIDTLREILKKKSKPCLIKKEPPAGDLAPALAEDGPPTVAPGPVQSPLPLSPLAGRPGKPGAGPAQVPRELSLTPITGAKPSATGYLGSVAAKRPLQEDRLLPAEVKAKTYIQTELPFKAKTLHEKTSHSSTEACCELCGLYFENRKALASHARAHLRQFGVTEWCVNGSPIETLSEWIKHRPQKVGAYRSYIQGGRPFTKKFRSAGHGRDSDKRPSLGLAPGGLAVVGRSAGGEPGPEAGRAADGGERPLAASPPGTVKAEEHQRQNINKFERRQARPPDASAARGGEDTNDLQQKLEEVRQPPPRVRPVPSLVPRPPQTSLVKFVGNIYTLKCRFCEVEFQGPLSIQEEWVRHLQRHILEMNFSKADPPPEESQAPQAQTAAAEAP
Chain of HiBit-WIZ fusion protein (Q96SW2 whole entry, the tested form may be a part): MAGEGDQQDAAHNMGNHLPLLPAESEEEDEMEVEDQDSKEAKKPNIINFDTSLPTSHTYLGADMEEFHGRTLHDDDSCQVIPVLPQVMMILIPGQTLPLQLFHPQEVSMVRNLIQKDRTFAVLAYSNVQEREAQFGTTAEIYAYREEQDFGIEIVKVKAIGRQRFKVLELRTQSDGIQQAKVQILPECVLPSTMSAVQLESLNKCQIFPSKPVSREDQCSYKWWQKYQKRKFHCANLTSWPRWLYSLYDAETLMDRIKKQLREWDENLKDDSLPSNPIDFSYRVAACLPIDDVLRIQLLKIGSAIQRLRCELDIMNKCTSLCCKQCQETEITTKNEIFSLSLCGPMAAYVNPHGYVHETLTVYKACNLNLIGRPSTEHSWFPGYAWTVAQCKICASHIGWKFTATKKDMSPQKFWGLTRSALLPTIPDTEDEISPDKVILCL
Chain of HiBit-WIZ fusion protein (Q16531 whole entry partner, the tested form may be a part): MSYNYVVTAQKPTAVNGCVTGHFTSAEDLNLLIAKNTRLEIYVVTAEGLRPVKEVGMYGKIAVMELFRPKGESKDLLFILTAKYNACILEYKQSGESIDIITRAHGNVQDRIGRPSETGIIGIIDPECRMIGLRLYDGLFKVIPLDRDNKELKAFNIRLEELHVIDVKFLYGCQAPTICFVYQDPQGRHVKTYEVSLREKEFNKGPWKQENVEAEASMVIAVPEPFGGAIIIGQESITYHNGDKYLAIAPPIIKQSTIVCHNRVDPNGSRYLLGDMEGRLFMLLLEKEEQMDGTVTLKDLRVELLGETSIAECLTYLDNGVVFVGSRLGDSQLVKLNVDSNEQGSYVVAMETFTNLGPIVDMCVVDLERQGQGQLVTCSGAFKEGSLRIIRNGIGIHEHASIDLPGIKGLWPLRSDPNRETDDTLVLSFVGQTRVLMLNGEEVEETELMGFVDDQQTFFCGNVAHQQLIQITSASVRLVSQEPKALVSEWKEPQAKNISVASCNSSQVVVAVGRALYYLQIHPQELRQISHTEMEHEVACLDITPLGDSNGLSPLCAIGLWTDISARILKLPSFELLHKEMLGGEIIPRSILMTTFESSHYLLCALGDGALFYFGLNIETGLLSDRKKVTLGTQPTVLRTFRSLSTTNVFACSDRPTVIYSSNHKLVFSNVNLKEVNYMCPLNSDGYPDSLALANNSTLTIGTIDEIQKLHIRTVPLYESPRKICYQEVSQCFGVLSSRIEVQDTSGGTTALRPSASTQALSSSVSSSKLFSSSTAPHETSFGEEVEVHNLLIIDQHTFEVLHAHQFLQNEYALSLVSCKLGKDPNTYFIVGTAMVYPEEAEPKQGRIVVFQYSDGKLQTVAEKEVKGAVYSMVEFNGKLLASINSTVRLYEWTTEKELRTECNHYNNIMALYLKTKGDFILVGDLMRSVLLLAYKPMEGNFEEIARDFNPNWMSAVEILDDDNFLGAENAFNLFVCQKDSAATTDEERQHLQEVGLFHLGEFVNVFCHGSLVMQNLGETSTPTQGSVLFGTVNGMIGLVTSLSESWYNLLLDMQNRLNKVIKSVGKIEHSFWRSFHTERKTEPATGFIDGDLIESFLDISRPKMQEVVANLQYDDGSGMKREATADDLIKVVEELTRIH

Dmax [1] [%] | remaining activity at up to 25 µM (HEK-293T, 293T cells) [%] | DC50 [nM] | SMILES | Dmax (HEK-293T, read-out: % degradation of WIZ (100-Amax), 100 minus Amax, 293T cells) [%] | remaining activity (HEK-293T, read-out: WIZ Amax, DMSO-normalized, curve-fitted percentage of WIZ-HiBit remaining at 25 uM, 293T cells) [%]
7.2 | 92.8 | > 25000 | CN(C)CC(=O)N1CCCC[C@H]1COc1ccc2c(c1)CN(C1CCC(=O)NC1=O)C2=O (stereo partly drawn) [Compound I-72jk] | – | –
11.7 | 88.3 | > 25000 | O=C1CCC(N2Cc3cc(OC[C@@H]4CCCCN4C(=O)CN4CCCCC4)ccc3C2=O)C(=O)N1 (stereo partly drawn) [Compound I-72jq] | – | –
14.5 | 85.5 | > 25000 | CC(C)Oc1cccc(C(=O)N2CCCC[C@H]2COc2ccc3c(c2)CN(C2CCC(=O)NC2=O)C3=O)c1 (stereo partly drawn) [Compound I-72ju] | – | –
6.1 | 93.9 | > 25000 | O=C1CCC(N2Cc3cc(OC[C@@H]4CCCCN4C(=O)c4ccccc4Cn4cncn4)ccc3C2=O)C(=O)N1 (stereo partly drawn) [Compound I-72jx] | – | –
11.3 | 88.7 | > 25000 | CC(C)Oc1ccccc1C(=O)N1CCCC[C@H]1COc1ccc2c(c1)CN(C1CCC(=O)NC1=O)C2=O (stereo partly drawn) [Compound I-72jy] | – | –
9.4 | 90.6 | > 25000 | O=C1CCC(N2Cc3cc(OC[C@@H]4CCCCN4C(=O)c4ccnnc4)ccc3C2=O)C(=O)N1 (stereo partly drawn) [Compound I-72kc] | – | –
8.4 | 91.6 | > 25000 | O=C1CCC(N2Cc3cc(OC[C@@H]4CCCCN4C(=O)Cc4cscn4)ccc3C2=O)C(=O)N1 (stereo partly drawn) [Compound I-72m] | – | –
23.4 | 76.6 | > 25000 | Cc1nc(C(F)(F)F)ccc1C(=O)N1CCCC[C@H]1COc1ccc2c(c1)CN(C1CCC(=O)NC1=O)C2=O (stereo partly drawn) [Compound I-72n] | – | –
78.2 | 21.8 | 962 | CCc1noc(CC)c1C(=O)N1CCCC[C@H]1COc1ccc2c(c1)CN(C1CCC(=O)NC1=O)C2=O (stereo partly drawn) [Compound I-72s] | – | –
69.9 | 30.1 | 1470 | CCCCCc1ccc(C(=O)N2CCCC[C@H]2COc2ccc3c(c2)CN(C2CCC(=O)NC2=O)C3=O)cc1 (stereo partly drawn) [Compound I-72t] | – | –
0 | 100 | > 25000 | N#CCCN1CCN(CC(=O)N2CCCC[C@H]2COc2ccc3c(c2)CN(C2CCC(=O)NC2=O)C3=O)CC1 (stereo partly drawn) [Compound I-72x] | – | –
2.9 | 97.1 | > 25000 | N#CC1(c2cc(C(=O)N3CCCC[C@H]3COc3ccc4c(c3)CN(C3CCC(=O)NC3=O)C4=O)ccn2)CC1 (stereo partly drawn) [Compound I-72y] | – | –
16.8 | 83.2 | > 25000 | COc1ccccc1C(=O)N1CCC[C@@H]1COc1ccc2c(c1)CN(C1CCC(=O)NC1=O)C2=O (stereo partly drawn) [Compound I-83, 3-(5-(((R)-1-(2-methoxybenzoyl)pyrrolidin-2-yl)methoxy)-1-oxoisoindolin-2-yl)piperidine-2,6-dione] | – | –
21.2 | 78.8 | > 25000 | O=C1CCC(N2Cc3cc(OC[C@@H]4CC(F)(F)CN4)ccc3C2=O)C(=O)N1 (stereo partly drawn) [Compound I-84, 3-(5-(((S)-4,4-difluoropyrrolidin-2-yl)methoxy)-1-oxoisoindolin-2-yl)piperidine-2,6-dione] | – | –
91.8 | 8.17 | 140 | CO[C@H]1C[C@H](CN2CCCC[C@@H]2COc2ccc3c(c2)CN(C2CCC(=O)NC2=O)C3=O)C1 (stereo partly drawn) [Compound I-97, 3-(5-(((R)-1-(((1r,3R)-3-methoxycyclobutyl)methyl)piperidin-2-yl)methoxy)-1-oxoisoindolin-2-yl)piperidine-2,6-dione] | – | –
82.2 | 17.8 | 410 | O=C1CCC(N2Cc3cc(OC[C@H]4CCCCN4CC45CC(F)(C4)C5)ccc3C2=O)C(=O)N1 (stereo partly drawn) [Compound I-100, 3-(5-(((R)-1-((3-fluorobicyclo[1.1.1]pentan-1-yl)methyl)piperidin-2-yl)methoxy)-1-oxoisoindolin-2-yl)piperidine-2,6-dione] | – | –

Dmax [1] [%] | remaining activity at up to 25 µM (HEK-293T, 293T cells) [%] | DC50 [nM] | SMILES | Dmax (HEK-293T, read-out: % degradation of WIZ (100-Amax), 100 minus Amax, 293T cells) [%] | remaining activity (HEK-293T, read-out: WIZ Amax, DMSO-normalized, curve-fitted percentage of WIZ-HiBit remaining at 25 uM, 293T cells) [%]
96 | 3.95 | 72 | O=C1CCC(N2Cc3cc(OC[C@H]4CCCCN4Cc4ccccc4N4CCOCC4)ccc3C2=O)C(=O)N1 (stereo partly drawn) [Compound I-101] | – | –
82.7 | 17.3 | 240 | O=C1CCC(N2Cc3cc(OC[C@H]4CCCCN4Cc4ccc(N5CCN(CC6CC6)CC5)cc4)ccc3C2=O)C(=O)N1 (stereo partly drawn) [Compound I-102, 3-(5-(((R)-1-(4-(4-(cyclopropylmethyl)piperazin-1-yl)benzyl)piperidin-2-yl)methoxy)-1-oxoisoindolin-2-yl)piperidine-2,6-dione] | – | –
87.1 | 12.9 | 540 | O=C1CCC(N2Cc3cc(OC[C@H]4CCCCN4CC4CC5(COC5)C4)ccc3C2=O)C(=O)N1 (stereo partly drawn) [Compound I-104, 3-(5-(((R)-1-((2-oxaspiro[3.3]heptan-6-yl)methyl)piperidin-2-yl)methoxy)-1-oxoisoindolin-2-yl)piperidine-2,6-dione] | – | –
94.8 | 5.23 | 55 | CC(C)(C)OC(=O)N1CCN(c2ccccc2CN2CCCC[C@@H]2COc2ccc3c(c2)CN(C2CCC(=O)NC2=O)C3=O)CC1 (stereo partly drawn) [Compound I-105, Tert-butyl 4-(2-(((2R)-2-(((2-(2,6-dioxopiperidin-3-yl)-1-oxoisoindolin-5-yl)oxy)methyl)piperidin-1-yl)methyl)phenyl)piperazine-1-carboxylate] | – | –
80.1 | 19.9 | 2560 | O=C1CCC(N2Cc3cc(OC[C@H]4CCCCN4Cc4ccccc4N4CCNCC4)ccc3C2=O)C(=O)N1 (stereo partly drawn) [Compound I-106, 3-(1-oxo-5-(((R)-1-(2-(piperazin-1-yl)benzyl)piperidin-2-yl)methoxy)isoindolin-2-yl)piperidine-2,6-dione] | – | –
99.8 | 0.21 | 16 | CC(C)CN1CCN(c2ccccc2CN2CCCC[C@@H]2COc2ccc3c(c2)CN(C2CCC(=O)NC2=O)C3=O)CC1 (stereo partly drawn) [Compound I-107, 3-(5-(((R)-1-(2-(4-isobutylpiperazin-1-yl)benzyl)piperidin-2-yl)methoxy)-1-oxoisoindolin-2-yl)piperidine-2,6-dione] | – | –
98.1 | 1.93 | 25 | O=C1CCC(N2Cc3cc(OC[C@H]4CCCCN4Cc4ccccc4N4CCN(CC5CCOCC5)CC4)ccc3C2=O)C(=O)N1 (stereo partly drawn) [Compound I-108, 3-(1-oxo-5-(((R)-1-(2-(4-((tetrahydro-2H-pyran-4-yl)methyl)piperazin-1-yl)benzyl)piperidin-2-yl)methoxy)isoindolin-2-yl)piperidine-2,6-dione] | – | –
70.1 | 29.9 | 1500 | O=C1CCC(N2Cc3cc(OC[C@H]4CCCCN4Cc4ccc(N5CCN(C6CCOCC6)CC5)cc4)ccc3C2=O)C(=O)N1 (stereo partly drawn) [Compound I-109, 3-(1-oxo-5-(((R)-1-(4-(4-(tetrahydro-2H-pyran-4-yl)piperazin-1-yl)benzyl)piperidin-2-yl)methoxy)isoindolin-2-yl)piperidine-2,6-dione] | – | –
99.5 | 0.48 | 8.6 | CC(C)(C)OC(=O)N1CCc2cccc(CN3CCCC[C@@H]3COc3ccc4c(c3)CN(C3CCC(=O)NC3=O)C4=O)c21 (stereo partly drawn) [Compound I-110, Tert-butyl 7-(((2R)-2-(((2-(2,6-dioxopiperidin-3-yl)-1-oxoisoindolin-5-yl)oxy)methyl)piperidin-1-yl)methyl)indoline-1-carboxylate] | – | –
90.7 | 9.3 | 11 | O=C1CCC(N2Cc3cc(OC[C@H]4CCCCN4Cc4cccc5c4NCC5)ccc3C2=O)C(=O)N1 (stereo partly drawn) [Compound I-111, 3-(5-(((R)-1-(indolin-7-ylmethyl)piperidin-2-yl)methoxy)-1-oxoisoindolin-2-yl)piperidine-2,6-dione] | – | –
99.4 | 0.64 | 3.8 | O=C1CCC(N2Cc3cc(OC[C@H]4CCCCN4Cc4ccc(F)cc4)ccc3C2=O)C(=O)N1 (stereo partly drawn) [Compound I-113] | – | –
94.5 | 5.54 | 18 | O=C1CCC(N2Cc3cc(OC[C@H]4CCCCN4Cc4ccc(F)cc4Cl)ccc3C2=O)C(=O)N1 (stereo partly drawn) [Compound I-114] | – | –
89.5 | 10.5 | 170 | O=C1CCC(N2Cc3cc(OC[C@H]4CCCCN4Cc4ccc(F)cn4)ccc3C2=O)C(=O)N1 (stereo partly drawn) [Compound I-115] | – | –
85.4 | 14.6 | 380 | CO[C@H]1C[C@@H](CN2CCCC[C@@H]2COc2ccc3c(c2)CN(C2CCC(=O)NC2=O)C3=O)C1 (stereo partly drawn) [Compound I-118, 3-(5-(((R)-1-(((1s,3S)-3-methoxycyclobutyl)methyl)piperidin-2-yl)methoxy)-1-oxoisoindolin-2-yl)piperidine-2,6-dione] | – | –
97.4 | 2.56 | 10 | O=C1CCC(N2Cc3cc(OC[C@H]4CCCCN4Cc4ccccc4N4CCCCC4)ccc3C2=O)C(=O)N1 (stereo partly drawn) [Compound I-119] | – | –

SMILES | Dmax [1] [%] | remaining activity at up to 25 µM (HEK-293T, 293T cells) [%] | DC50 [nM] | Dmax (HEK-293T, read-out: % degradation of WIZ (100-Amax), 100 minus Amax, 293T cells) [%] | remaining activity (HEK-293T, read-out: WIZ Amax, DMSO-normalized, curve-fitted percentage of WIZ-HiBit remaining at 25 uM, 293T cells) [%]
CCN1CCc2cccc(CN3CCCC[C@@H]3COc3ccc4c(c3)CN(C3CCC(=O)NC3=O)C4=O)c21 (stereo partly drawn) [Compound I-112, 3-(5-(((R)-1-((1-ethylindolin-7-yl)methyl)piperidin-2-yl)methoxy)-1-oxoisoindolin-2-yl)piperidine-2,6-dione] | – | – | 59 | 96.9 | 3.13
